Measured values reported in ChEMBL document CHEMBL1201862, “PubChem BioAssay data set” (2004).
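Compound exposure: 48 hours, 5 concentrations, 96-well plates. GI50: concentration for 50% inhibition of growth.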 The source made the active and inactive calls. Cut-off read from the data, not from the text of the source: active = GI50 up to about 1.1 µM and inactive = higher.

Key:
Assay in all cases: NCI anticancer screen, dose series, 48 h
SK-MEL-2 = test system: SK-MEL-2
M14 = test system: M14
OVCAR-5 = test system: OVCAR-5
OVCAR-3 = test system: OVCAR-3
HOP-62 = test system: HOP-62
MOLT-4 = test system: MOLT-4
SF-295 = test system: SF-295
UACC-257 = test system: UACC-257
COLO 205 = test system: COLO 205
A549 = test system: A549
SK-MEL-28 = test system: SK-MEL-28
SK-OV-3 = test system: SK-OV-3
HOP-92 = test system: HOP-92
NCI-H460 = test system: NCI-H460
HT-29 = test system: HT-29
HCT-116 = test system: HCT-116
K562 = test system: K562
NCI-H522 = test system: NCI-H522
SW-620 = test system: SW-620
MCF7 = test system: MCF7

Structure (SMILES)	GI50 (SK-MEL-2)	GI50 (M14)	GI50 (OVCAR-5)	GI50 (OVCAR-3)	GI50 (HOP-62)	GI50 (MOLT-4)	GI50 (SF-295)	GI50 (UACC-257)	GI50 (COLO 205)	GI50 (A549)	GI50 (SK-MEL-28)	GI50 (SK-OV-3)	GI50 (HOP-92)	GI50 (NCI-H460)	GI50 (HT-29)	GI50 (HCT-116)	GI50 (K562)	GI50 (NCI-H522)	GI50 (SW-620)	GI50 (MCF7)
Cc1ncc([N+](=O)[O-])n1CCNS(=O)(=O)CCCn1ccnc1[N+](=O)[O-]	> 100 µM (inactive)	> 100 µM (inactive)	> 100 µM (inactive)	> 100 µM (inactive)	> 100 µM (inactive)	> 100 µM (inactive)	> 100 µM (inactive)	> 100 µM (inactive)	> 100 µM (inactive)	> 100 µM (inactive)	> 100 µM (inactive)	> 100 µM (inactive)	> 100 µM (inactive)	> 100 µM (inactive)	> 100 µM (inactive)	> 100 µM (inactive)	> 100 µM (inactive)	> 100 µM (inactive)	> 100 µM (inactive)	> 100 µM (inactive)
Cc1cc(S(=O)(=O)Nc2nc(Nc3ccc(Cl)cc3)n[nH]2)c(S)cc1Cl	> 100 µM (inactive)	59.6 µM (inactive)	> 100 µM (inactive)	> 100 µM (inactive)	52.5 µM (inactive)	> 100 µM (inactive)	91.2 µM (inactive)	> 100 µM (inactive)	79.3 µM (inactive)	> 100 µM (inactive)	> 100 µM (inactive)	> 100 µM (inactive)	> 100 µM (inactive)	86.9 µM (inactive)	81.1 µM (inactive)	> 100 µM (inactive)	> 100 µM (inactive)	70.5 µM (inactive)	> 100 µM (inactive)	> 100 µM (inactive)
CCOC(=O)c1cn(CC)c2ccc3ccsc3c2c1=O	75.2 µM (inactive)	> 100 µM (inactive)	> 100 µM (inactive)	> 100 µM (inactive)	> 100 µM (inactive)	> 100 µM (inactive)	> 100 µM (inactive)	> 100 µM (inactive)	> 100 µM (inactive)	> 100 µM (inactive)	> 100 µM (inactive)	> 100 µM (inactive)	> 100 µM (inactive)	> 100 µM (inactive)	> 100 µM (inactive)	> 100 µM (inactive)	> 100 µM (inactive)	> 100 µM (inactive)	> 100 µM (inactive)	> 100 µM (inactive)
COC(=O)CCc1cc(OC)c2c(c1)[C@H](C(=O)OC)[C@@H](c1ccc(O)c(OC)c1)O2	33.1 µM (inactive)	38.3 µM (inactive)	> 100 µM (inactive)	47.2 µM (inactive)	77.1 µM (inactive)	24.7 µM (inactive)	47.1 µM (inactive)	> 100 µM (inactive)	41.2 µM (inactive)	39.5 µM (inactive)	41.9 µM (inactive)	42.8 µM (inactive)	> 100 µM (inactive)	37.8 µM (inactive)	36.2 µM (inactive)	35.5 µM (inactive)	13.4 µM (inactive)	38.3 µM (inactive)	47.4 µM (inactive)	49.2 µM (inactive)
O=C1NC(c2ccccc2)N=C2Oc3ccccc3C=C12 (stereo not given)	1.26 µM (inactive)	0.194 µM (active)	1.04 µM (active)	0.0897 µM (active)	0.543 µM (active)	1.69 µM (inactive)	0.444 µM (active)	0.065 µM (active)	0.0731 µM (active)	1.73 µM (inactive)	38.7 µM (inactive)	0.0424 µM (active)	47.2 µM (inactive)	0.565 µM (active)	1.68 µM (inactive)	0.263 µM (active)	1.28 µM (inactive)	0.622 µM (active)	0.621 µM (active)	0.359 µM (active)
COc1cc(C[S+]([O-])c2ccc(O)cc2)cc(OC)c1OC (stereo not given)	> 100 µM (inactive)	> 100 µM (inactive)	> 100 µM (inactive)	> 100 µM (inactive)	> 100 µM (inactive)	> 100 µM (inactive)	> 100 µM (inactive)	> 100 µM (inactive)	> 100 µM (inactive)	> 100 µM (inactive)	> 100 µM (inactive)	> 100 µM (inactive)	> 100 µM (inactive)	> 100 µM (inactive)	> 100 µM (inactive)	> 100 µM (inactive)	> 100 µM (inactive)	> 100 µM (inactive)	> 100 µM (inactive)	> 100 µM (inactive)
O=[N+]([O-])c1ccc2sc(/C=N/c3cnccn3)cc2c1	23.2 µM (inactive)	37.2 µM (inactive)	36.4 µM (inactive)	23.7 µM (inactive)	29.1 µM (inactive)	10.7 µM (inactive)	35.4 µM (inactive)	27.8 µM (inactive)	39.8 µM (inactive)	64.9 µM (inactive)	28.3 µM (inactive)	30.4 µM (inactive)	60.1 µM (inactive)	31 µM (inactive)	39.2 µM (inactive)	37 µM (inactive)	21.4 µM (inactive)	32.5 µM (inactive)	25 µM (inactive)	5.74 µM (inactive)
COC(=O)/C=C/COCC1C2CCC(=O)C21 (stereo not given)	> 100 µM (inactive)	> 100 µM (inactive)	> 100 µM (inactive)	> 100 µM (inactive)	> 100 µM (inactive)	> 100 µM (inactive)	> 100 µM (inactive)	> 100 µM (inactive)	> 100 µM (inactive)	> 100 µM (inactive)	> 100 µM (inactive)	> 100 µM (inactive)	> 100 µM (inactive)	> 100 µM (inactive)	> 100 µM (inactive)	> 100 µM (inactive)	> 100 µM (inactive)	> 100 µM (inactive)	> 100 µM (inactive)	> 100 µM (inactive)
C1CSC(Sc2nc(SC3=NCCS3)nc(SC3=NCCS3)n2)=N1	> 100 µM (inactive)	> 100 µM (inactive)	> 100 µM (inactive)	> 100 µM (inactive)	> 100 µM (inactive)	> 100 µM (inactive)	> 100 µM (inactive)	> 100 µM (inactive)	> 100 µM (inactive)	> 100 µM (inactive)	> 100 µM (inactive)	> 100 µM (inactive)	> 100 µM (inactive)	> 100 µM (inactive)	> 100 µM (inactive)	> 100 µM (inactive)	> 100 µM (inactive)	35.5 µM (inactive)	> 100 µM (inactive)	> 100 µM (inactive)
CC12c3c4cccc3Oc3cc(N)cc(c31)Oc1cc(N)cc(c12)O4	9.86 µM (inactive)	4.55 µM (inactive)	4.31 µM (inactive)	2.41 µM (inactive)	5.75 µM (inactive)	5.13 µM (inactive)	2.53 µM (inactive)	5.71 µM (inactive)	3.29 µM (inactive)	3.77 µM (inactive)	6.21 µM (inactive)	4.11 µM (inactive)	21.4 µM (inactive)	3.48 µM (inactive)	2.01 µM (inactive)	3.14 µM (inactive)	4.18 µM (inactive)	2.24 µM (inactive)	3.48 µM (inactive)	4.37 µM (inactive)
CC(=O)Nc1ccc(CNc2cc(=O)n(C)c(=O)[nH]2)cc1	> 100 µM (inactive)	> 100 µM (inactive)	> 100 µM (inactive)	> 100 µM (inactive)	> 100 µM (inactive)	> 100 µM (inactive)	> 100 µM (inactive)	> 100 µM (inactive)	> 100 µM (inactive)	> 100 µM (inactive)	> 100 µM (inactive)	> 100 µM (inactive)	> 100 µM (inactive)	> 100 µM (inactive)	> 100 µM (inactive)	> 100 µM (inactive)	> 100 µM (inactive)	> 100 µM (inactive)	> 100 µM (inactive)	> 100 µM (inactive)
O=[N+]([O-])c1c(F)c(F)c2c(c1F)N(CCCCCl)c1ccccc1S2	3.63 µM (inactive)	4.83 µM (inactive)	18.8 µM (inactive)	7.01 µM (inactive)	14.3 µM (inactive)	2.77 µM (inactive)	16.6 µM (inactive)	11.4 µM (inactive)	14.4 µM (inactive)	14.4 µM (inactive)	5.9 µM (inactive)	19.7 µM (inactive)	16.4 µM (inactive)	5.01 µM (inactive)	2.54 µM (inactive)	5.05 µM (inactive)	2.05 µM (inactive)	4.9 µM (inactive)	4.05 µM (inactive)	3.61 µM (inactive)
O=C(O)C(F)(OC(F)(F)C(F)(OC(F)(F)C(F)(F)C(F)(F)F)C(F)(F)F)C(F)(F)F (stereo not given)	> 100 µM (inactive)	> 100 µM (inactive)	> 100 µM (inactive)	> 100 µM (inactive)	> 100 µM (inactive)	> 100 µM (inactive)	> 100 µM (inactive)	> 100 µM (inactive)	> 100 µM (inactive)	> 100 µM (inactive)	> 100 µM (inactive)	> 100 µM (inactive)	63.7 µM (inactive)	> 100 µM (inactive)	> 100 µM (inactive)	> 100 µM (inactive)	> 100 µM (inactive)	> 100 µM (inactive)	> 100 µM (inactive)	> 100 µM (inactive)
CC1=C(O)C(=O)c2ccccc2C1=O	> 100 µM (inactive)	16.9 µM (inactive)	> 100 µM (inactive)	43.4 µM (inactive)	> 100 µM (inactive)	> 100 µM (inactive)	49.4 µM (inactive)	47.3 µM (inactive)	> 100 µM (inactive)	> 100 µM (inactive)	> 100 µM (inactive)	> 100 µM (inactive)	> 100 µM (inactive)	43.6 µM (inactive)	56.1 µM (inactive)	> 100 µM (inactive)	78.5 µM (inactive)	47.9 µM (inactive)	84.3 µM (inactive)	67.6 µM (inactive)
